1 substance from patent US20210145951A1, “COMPOSITIONS AND METHODS FOR SHARED NEO-EPITOPE VACCINES” (Epivax Oncology, Inc., priority 2019, published 2021) can be followed below.

For assay [1], the system named is CT26 murine colon tumor cells. Briefly: CT26 tumor growth with or without poly-ICLC (Example 13). The format is in vivo, BALB/c mice. As to conditions: day 25 post-tumor implantation, relative to PBS or poly-ICLC alone. On the procedure:
The goal of this experiment was to determine the requirement for the inclusion of the adjuvant poly-ICLC in a peptide vaccine containing ANCER™ selected neoantigens. For this experiment, female BALB/c mice were implanted subcutaneously with 3×10^5 CT26 murine colon tumor cells. Tumor growth was monitored by caliper measurement and mice were sacrificed 45 days after tumor implantation or when tumor volumes reached 2000 mm^3, whichever came first.
Four vaccine groups were tested (n=10 mice/group):
Peptide vaccines were comprised of 20 different ANCER™ selected peptides at a concentration of 5 μg/peptide for a total dose of 100 μg peptide per immunization. Mice were immunized subcutaneously in the opposite flank from tumor implantation twice per week for three weeks, starting at day 4 post-tumor implantation.

A further assay has as its system CT26 tumor cells. The experiment in a line: CT26 tumor growth and survival after vaccination (Example 1). Particulars: CT26 in Balb/c mice. The format is in vivo.

poly-ICLC: the “control of tumor growth” value in assay [1] is on record as “no difference in tumor growth kinetics”. In the assay with CT26 tumor cells (N=10), the “mice reaching a tumor volume of at least 2,000 mm^3 (endpoint) by day 28” value came out at 60% and the “mice that survived past day 28” value is listed as “Less than 50%”. Besides, the “mice that survived the 45 days of the experiment” value with CT26 tumor cells (N=10, in words) is given as “None”. In addition, the “tumor burden compared to Group 1 (PBS)” value in the assay on CT26 tumor cells (sc injections days 5-26) is recorded as “no reduction in tumor burden”.
